Structures can show the parent of a compound that is named as a salt.

The melting point is the temperature of the solid-liquid transition. Compound `OC1C(Cc2ccccc2)CC2CCC1N2Cc1nc2ccccc2[nH]1` (racemic) came in with a melting point of 208 to 209 °C.

`COC1C(Cc2ccccc2)CC2CCC1N2Cc1nc2ccccc2[nH]1` (racemic) had a melting point of 172 to 173 °C.

As for `OC1C(Cc2ccccc2)CC2CCC1N2Cc1nc2ccccc2[nH]1` (racemic) (as salt: hydrochloride), the melting point is 234 to 236 °C.

In turn, `COC1C(Cc2ccccc2)CC2CCC1N2Cc1nc2ccccc2[nH]1` (racemic) (as salt: hydrochloride) showed a melting point of 222 to 226 °C.

Source of the values: patent publication US6432976B1, “8-aza-bicyclo[3.2.1]octane NMDA/NR2B antagonists” (Merck & Co., Inc., priority 1999, dated 2002).
